Key:
[1] = target: T1, K-Ras G12C mutant protein (Homo sapiens, UniProt P01116, G12C); assay: K-Ras G12C HTRF assay; format: biochemical; conditions: Table 1; unit or assay not given; several values in one cell
T1 construct: K-Ras G12C (residues 2-188) and SOS1 (residues 564-1049) had N-terminal 6-His; made in house; host or cells: E. coli
Procedure: In the above definition of R^2, the electrophilic moiety that is capable of forming a covalent bond with a cysteine residue is determined via K-Ras G12C-alkylation studies and Homogeneous Time Resolved Fluorescence (HTRF) assays. The G12C mutation of the K-Ras gene is a change in amino acid from glycine to cysteine at the 12th amino acid. The compounds according to the present disclosure were discovered using the HTRF assay and the K-Ras G12C-alkylation assay, as further detailed elsewhere herein below, and then NMR spectroscopy was later used to validate the specificity with which the molecule was attaching to G12C.

K-Ras G12C [2] = target: T2, K-Ras G12C (Homo sapiens, UniProt P01116, G12C); assay: K-Ras G12C, SOS1, Raf RBD HTRF assay for inhibition of GTP exchange; format: biochemical; set-up: K-Ras G12C (residues 2-188) and SOS1 (residues 564-1049) had N-terminal 6-His; made in house; host or cells: E. coli; conditions: 18 hours preincubation with K-Ras G12C at room temperature; SOS1-mediated GTP exchange
How it was run: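 After 18 h at room temperature with compound, SOS1 (1.25 nM final) started exchange to GTP (150 μM final). C-Raf RBD, Tb-anti-FLAG and D2-anti-his (50, 1 and 12.5 nM) were then added. The 665/615 nm HTRF ratio was read after 2 h; buffer was HEPES/NaCl, 1 mM MgCl2, BSA, Tween-20 and DTT.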
Target sequence in this assay (P01116 2-188 isoform P01116-2 G12C): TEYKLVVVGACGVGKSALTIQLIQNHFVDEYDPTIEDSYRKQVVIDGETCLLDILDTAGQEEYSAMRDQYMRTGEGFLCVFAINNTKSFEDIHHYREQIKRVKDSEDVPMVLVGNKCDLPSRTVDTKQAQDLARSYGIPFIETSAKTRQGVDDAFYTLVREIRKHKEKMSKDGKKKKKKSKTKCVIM

K-Ras G12C [3] = target: T2, K-Ras G12C; assay: Western blot assay for in cell alkylation of K-Ras G12C (HCC1171 cells); format: cell-based; set-up: endogenous in cells; host or cells: HCC1171; conditions: 18 hours at 37° C., 7 point dose response
How it was run: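 HCC1171 cells exposed to compounds for 18 h at 37° C, lysed, and analysed by SDS-PAGE/western blot with anti-K-Ras antibody and fluorescent secondary. Alkylated K-Ras separated by band shift; % alkylation = FI(alkylated)/(FI(alkylated)+FI(unalkylated))×100, IC50 from 7-point dose response.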
Target sequence in this assay (P01116 1-188 isoform P01116-2 G12C): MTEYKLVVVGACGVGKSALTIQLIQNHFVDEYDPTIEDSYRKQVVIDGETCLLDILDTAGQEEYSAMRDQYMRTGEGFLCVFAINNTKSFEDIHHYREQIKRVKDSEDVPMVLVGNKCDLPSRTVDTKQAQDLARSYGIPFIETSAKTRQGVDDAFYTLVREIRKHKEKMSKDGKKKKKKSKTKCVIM

[4] = Whole blood stability assay; format: in vitro ADME; conditions: fresh whole blood, drug 1 μM, 37° C., 180 minutes incubation
Procedure: Whole Blood Stability Assay A whole blood stability assay was performed using fresh blood with a drug final concentration of 1 μM. The drug-blood mixtures were incubated at 37° C. for 180 minutes.

T1 sequence (P01116 2-188 isoform P01116-2 G12C): as the sequence (P01116 2-188 isoform P01116-2 G12C) above

Work on `C=CC(=O)N1CCN(c2ncnc3c2CCC(c2c(C)ccc4[nH]ncc24)C3)CC1` (racemic) [Example 2, 1-(4-(7-(5-methyl-1H-indazol-4-yl)-5,6,7,8-tetrahydroquinazolin-4-yl)piperazin-1-yl)prop-2-en-1-one] yielded an IC50 [1] of 840 nM, an IC50 (K-Ras G12C [2]) of 840 nM and an EC50 (K-Ras G12C [3]) of 6100 nM.

`C=CC(=O)N1CCN(c2nc(OC[C@@H]3CCCN3C)nc3c2C[C@@H](C)[C@H](c2c(F)c(N)cc(C)c2C(F)(F)F)C3)[C@@H](C)C1` (single isomer, unassigned) [Example 12b] gave an IC50 (K-Ras G12C [2]) of under 10 nM, an EC50 (K-Ras G12C [3]) of 3.3 nM and a half-life at 1 μM [4] of over 9 h.

With `C=CC(=O)N1CCN(c2nc(OC[C@@H]3CCCN3C)nc3c2C[C@@H](C)[C@H](c2nc(N)cc(C)c2C(F)(F)F)C3)CC1` (single isomer, unassigned) [Example 20a] the IC50 (K-Ras G12C [2]) was under 10 nM, the EC50 (K-Ras G12C [3]) was 14 nM and the half-life at 1 μM [4] was 3.83 h.

With `C=CC(=O)N1CCN(c2nc(OC[C@@H]3CCCN3C)nc3c2C[C@@H](C)[C@H](c2nc(N)cc(C)c2C(F)(F)F)C3)[C@@H](C)C1` (single isomer, unassigned) [Example 21b] the IC50 (K-Ras G12C [2]) was under 10 nM, the EC50 (K-Ras G12C [3]) was 6 nM and the half-life at 1 μM [4] was over 9 h.

With `C=CC(=O)N1CCN(c2nc(OC[C@@H]3CCCN3C)nc3c2C[C@@H](C)[C@H](c2cc(O)cc4ccccc24)C3)[C@@H](C)C1` (single isomer, unassigned) [Example 22b] the IC50 (K-Ras G12C [2]) was under 10 nM, the EC50 (K-Ras G12C [3]) was 6.1 nM and the half-life at 1 μM [4] was over 9 h.

`C=CC(=O)N1CCN(c2nc(OC[C@@H]3CCCN3C)nc3c2C[C@@H](C)[C@H](c2c(C(F)(F)F)ccc(N)c2F)C3)[C@@H](C)C1` (single isomer, unassigned) [Example 23b] gave an IC50 (K-Ras G12C [2]) of under 10 nM, an EC50 (K-Ras G12C [3]) of 6.6 nM and a half-life at 1 μM [4] of 4.67 h.

Work on `C=CC(=O)N1CCN(c2nc(OC[C@@H]3CCCN3C)nc3c2CC[C@H](c2cc(O)cc4ccccc24)C3)[C@@H](C)C1` (single isomer, unassigned) [Example 28b] yielded an IC50 (K-Ras G12C [2]) of under 10 nM, an EC50 (K-Ras G12C [3]) of 23 nM and a half-life at 1 μM [4] of 7 h.

`C=CC(=O)N1CCN(c2nc(OC[C@@H]3C[C@@H](F)CN3C)nc3c2CC[C@H](c2cc(O)cc4ccccc24)C3)[C@@H](C)C1` (single isomer, unassigned) [Example 31a] gave an IC50 (K-Ras G12C [2]) of under 10 nM, an EC50 (K-Ras G12C [3]) of 13 nM and a half-life at 1 μM [4] of 6.83 h.

`C=C(F)C(=O)N1CCN(c2nc(OC[C@@H]3CCCN3C)nc3c2C[C@@H](C)[C@H](c2c(F)c(N)cc(C)c2C(F)(F)F)C3)C[C@@H]1CC#N` (single isomer, unassigned) [Example 34c] showed an IC50 (K-Ras G12C [2]) of under 10 nM, an EC50 (K-Ras G12C [3]) of 14 nM and a half-life at 1 μM [4] of over 9 h.

In the case of `C=C(F)C(=O)N1CCN(c2nc(OC[C@@H]3CCCN3C)nc3c2CC(C)C(c2c(F)c(N)cc(C)c2C(F)(F)F)C3)CC1CC#N` (single isomer, unassigned) [Example 34d], the IC50 (K-Ras G12C [2]) is reported as under 10 nM, the EC50 (K-Ras G12C [3]) is reported as 6.7 nM and the half-life at 1 μM [4] is reported as over 9 h.

`C=CC(=O)N1CCN(c2nc(OC[C@@H]3CCCN3C)nc3c2C[C@@H](C)[C@H](c2cccc4c2CCC4)C3)C[C@H]1CC#N` (single isomer, unassigned) [Example 35b] gave an IC50 (K-Ras G12C [2]) of 11 nM, an EC50 (K-Ras G12C [3]) of 17 nM and a half-life at 1 μM [4] of 1.52 h.

Compound `C=CC(=O)N1CCN(c2nc(OC[C@@H]3CCCN3C)nc3c2C[C@@H](C)[C@H](c2cccc4c2CCC4)C3)C[C@@H]1CC#N` (single isomer, unassigned) [Example 35d] has an IC50 (K-Ras G12C [2]) of under 10 nM, an EC50 (K-Ras G12C [3]) of 0.98 nM and a half-life at 1 μM [4] of 1.45 h.

Work on `C=CC(=O)N1CCN(c2nc(OC[C@@H]3C[C@@H](F)CN3C)nc3c2C[C@@H](C)[C@H](c2c(F)c(N)cc(C)c2C(F)(F)F)C3)[C@@H](C)C1` (single isomer, unassigned) [Example 36b] yielded an IC50 (K-Ras G12C [2]) of under 10 nM, an EC50 (K-Ras G12C [3]) of 6 nM and a half-life at 1 μM [4] of over 9 h.

`C=CC(=O)N1CCN(c2nc(OC[C@@H]3C[C@@H](F)CN3C)nc3c2C[C@@H](CC)[C@H](c2c(F)c(N)cc(C)c2C(F)(F)F)C3)[C@@H](C)C1` (single isomer, unassigned) [Example 37a] showed an IC50 (K-Ras G12C [2]) of under 10 nM, an EC50 (K-Ras G12C [3]) of 4.5 nM and a half-life at 1 μM [4] of over 9 h.

Work on `C=C(F)C(=O)N1CCN(c2nc(OC[C@@H]3C[C@@H](F)CN3C)nc3c2C[C@@H](C)[C@H](c2c(F)c(N)cc(C)c2C(F)(F)F)C3)C[C@@H]1CC#N` (single isomer, unassigned) [Example 38b] yielded an IC50 (K-Ras G12C [2]) of under 10 nM, an EC50 (K-Ras G12C [3]) of 3.2 nM and a half-life at 1 μM [4] of over 9 h.

`C=C(F)C(=O)N1CCN(c2nc(OC[C@@H]3C[C@@H](F)CN3C)nc3c2C[C@@H](C)[C@H](c2c(F)c(N)cc(C)c2C(F)(F)F)C3)C[C@H]1CC#N` (single isomer, unassigned) [Example 38c] showed an IC50 (K-Ras G12C [2]) of 15 nM, an EC50 (K-Ras G12C [3]) of 24 nM and a half-life at 1 μM [4] of 2.33 h.

`C=CC(=O)N1CCN(c2nc(OC[C@@H]3CCCN3C)nc3c2C[C@@H](C)[C@H](c2nc(N)ccc2C(F)(F)F)C3)[C@@H](C)C1` (single isomer, unassigned) [Example 41b] showed an IC50 (K-Ras G12C [2]) of under 10 nM, an EC50 (K-Ras G12C [3]) of 8.1 nM and a half-life at 1 μM [4] of 3.33 h.

Compound `CN(C)C/C=C/C(=O)Nc1cc2c(Nc3ccc(F)c(Cl)c3)ncnc2cc1O[C@H]1CCOC1` [Afatinib, reference compound] has a half-life at 1 μM [4] of 1.25 h.

`C=CC(=O)N1CCN(c2ncnc3c2CC(C(C)C)C(c2cc(O)cc4ccccc24)C3)CC1` (stereo not drawn) [Example 16, 1-(4-(7-(3-hydroxynaphthalen-1-yl)-6-isopropyl-5,6,7,8-tetrahydroquinazolin-4-yl)piperazin-1-yl)prop-2-en-1-one] gave an IC50 [1] of 120 nM, an IC50 (K-Ras G12C [2]) of 120 nM and an EC50 (K-Ras G12C [3]) of 1200 nM.

`C=CC(=O)N1CCN(c2ncnc3c2CCC(c2c(C)ccc4cn[nH]c24)C3)CC1` (stereo not drawn) [Example 17, 1-[4-[7-(6-methyl-1H-indazol-7-yl)-5,6,7,8-tetrahydroquinazolin-4-yl]piperazin-1-yl]prop-2-en-1-one] gave an IC50 [1] of 700 nM, an IC50 (K-Ras G12C [2]) of 700 nM and an EC50 (K-Ras G12C [3]) of 6700 nM.

With `C=CC(=O)N1CCN(c2ncnc3c2CC(C)C(c2cc(O)cc4ccccc24)C3)CC1` (stereo not drawn) [Example 39, 1-(4-(7-(3-hydroxynaphthalen-1-yl)-6-methyl-5,6,7,8-tetrahydroquinazolin-4-yl)piperazin-1-yl)prop-2-en-1-one] the IC50 [1] was 180 nM, the IC50 (K-Ras G12C [2]) was 180 nM and the EC50 (K-Ras G12C [3]) was 720 nM.

Work on `C=CC(=O)N1CCN(c2ncnc3c2CCC(c2cc(O)cc4ccccc24)C3)CC1` (stereo not drawn) [Example 43, 1-[4-[7-(3-hydroxy-1-naphthyl)-5,6,7,8-tetrahydroquinazolin-4-yl]piperazin-1-yl]prop-2-en-1-one] yielded an IC50 [1] of 200 nM and an IC50 (K-Ras G12C [2]) of 200 nM.

With `C=CC(=O)N1CC2(CCN(c3nc(OCC4CCCN4C)nc4c3CCC(c3cc(O)cc5ccccc35)C4)CC2)C1` (stereo not drawn) [Example 51, 1-[7-[7-(3-hydroxy-1-naphthyl)-2-[(1-methylpyrrolidin-2-yl)methoxy]-5,6,7,8-tetrahydroquinazolin-4-yl]-2,7-diazaspiro[3.5]nonan-2-yl]prop-2-en-1-one] the IC50 [1] was 46 nM, the IC50 (K-Ras G12C [2]) was 46 nM and the EC50 (K-Ras G12C [3]) was 330 nM.

In the case of `C=CC(=O)N1CCN(c2nc(OCC3CCCN3C)nc3c2CCC(c2cc(O)cc4ccccc24)C3)C(CC#N)C1` (stereo not drawn) [Example 60, 2-(4-acryloyl-1-(7-(3-hydroxynaphthalen-1-yl)-2-((1-methylpyrrolidin-2-yl)methoxy)-5,6,7,8-tetrahydroquinazolin-4-yl)piperazin-2-yl)acetonitrile], the IC50 [1] is reported as 26 nM, the IC50 (K-Ras G12C [2]) is reported as 26 nM and the EC50 (K-Ras G12C [3]) is reported as 1300 nM.

Reference: patent US11760744B2, “Fused ring compounds” (Genentech, Inc., priority 2018, dated 2023)
